According to patent publication US20210345613A1, “HERBICIDAL PYRIMIDINE COMPOUNDS” (BASF SE, priority 2016, published 2021):

How the values were obtained:
Type in all cases: in vivo
[1] = test system: Setaria viridis; assay: greenhouse herbicidal test, post-emergence treatment; conditions: post-emergence method, scale from 0 to 100, test period 2 to 4 weeks
Text: (§1) The seeds of the test plants were sown separately for each species. For the post-emergence treatment, the test plants were first grown to a height of 3 to 15 cm, depending on the plant habit, and only then treated with the active ingredients which had been suspended or emulsified in water. For this purpose, the test plants were either sown directly and grown in the same containers, or they were first grown separately as seedlings and transplanted into the test containers a few days prior to treatment. Depending on the species, the plants were kept at 10-25° C. or 20-35° C., respectively. The test period extended over 2 to 4 weeks. During this time, the plants were tended, and their response to the individual treatments was evaluated. Evaluation was carried out using a scale from 0 to 100. 100 means no emergence of the plants, or complete destruction of at least the aerial moieties, and 0 means no damage, or normal course of growth. A good herbicidal activity is given at values of at least 70 and a very good herbicidal activity is given at values of at least 85. The plants used in the greenhouse experiments were of the following species: [table]

[2] = test system: Apera spica-venti; assay: greenhouse herbicidal test, pre-emergence treatment; conditions: pre-emergence method, application rate 2000 g/ha, scale from 0 to 100, test period 2 to 4 weeks
Text: (§2) The seeds of the test plants were sown separately for each species. For the pre-emergence treatment, the active ingredients, which had been suspended or emulsified in water, were applied directly after sowing by means of finely distributing nozzles. The containers were irrigated gently to promote germination and growth and subsequently covered with transparent plastic hoods until the plants had rooted. This cover caused uniform germination of the test plants, unless this had been impaired by the active ingredients. Depending on the species, the plants were kept at 10-25° C. or 20-35° C., respectively. The test period extended over 2 to 4 weeks. During this time, the plants were tended, and their response to the individual treatments was evaluated. Evaluation was carried out using a scale from 0 to 100. 100 means no emergence of the plants, or complete destruction of at least the aerial moieties, and 0 means no damage, or normal course of growth. A good herbicidal activity is given at values of at least 70 and a very good herbicidal activity is given at values of at least 85. The plants used in the greenhouse experiments were of the following species: [table]

[3] = test system: Echinocloa crus-galli; assay: greenhouse herbicidal test, post-emergence treatment; conditions: post-emergence method, scale from 0 to 100, test period 2 to 4 weeks
Text: as §1

[4] = test system: Alopecurus myosuroides; assay: as above; conditions: post-emergence method, application rate 2000 g/ha, scale from 0 to 100, test period 2 to 4 weeks
Text: as §1

[5] = test system: Avena fatua; assay: as above; conditions: post-emergence method, application rate 2000 g/ha, scale from 0 to 100, test period 2 to 4 weeks
Text: as §1

[6] = test system: Echinocloa crus-galli; assay: greenhouse herbicidal test, pre-emergence treatment; conditions: pre-emergence method, scale from 0 to 100, test period 2 to 4 weeks
Text: as §2

| SMILES | herbicidal activity against APESV [2] | herbicidal activity against ECHCG ([3]; application rate 2000 g/ha) | herbicidal activity against ALOMY [4] | herbicidal activity against AVEFA [5] | herbicidal activity against ECHCG ([6]; application rate 2000 g/ha) | further results |
| --- | --- | --- | --- | --- | --- | --- |
| Brc1ccsc1-c1cnc(C2CC2)nc1-c1ccco1 [Ex.6] | – | – | – | – | – | herbicidal activity against SETVI ([1]; application rate 1000 g/ha): very good (a very good herbicidal activity is given at values of at least 85) |
| Brc1cccnc1-c1cnc(C2CC2)nc1-c1ccco1 [Ex.8] | very good (a very good herbicidal activity is given at values of at least 85) | – | – | – | – | – |
| Fc1cccnc1-c1cnc(C2CC2)nc1-c1ccco1 [Ex.9] | – | good (A good herbicidal activity is given at values of at least 70) | – | – | – | – |
| Brc1cccnc1-c1cnc(C2CC2)nc1-c1ccco1 [Ex.10] | – | – | good (A good herbicidal activity is given at values of at least 70) | – | – | – |
| Fc1cccnc1-c1cnc(C2CC2)nc1-c1ccoc1 [Ex.11] | – | – | – | – | – | herbicidal activity against ECHCG ([3]; application rate 1000 g/ha): good (A good herbicidal activity is given at values of at least 70) |
| Cc1occc1-c1nc(C2CC2)ncc1-c1ncccc1Br [Ex.12] | very good (a very good herbicidal activity is given at values of at least 85) | good (A good herbicidal activity is given at values of at least 70) | good (A good herbicidal activity is given at values of at least 70) | good (A good herbicidal activity is given at values of at least 70) | – | – |
| Cc1occc1-c1nc(C2CC2)ncc1-c1ncccc1F [Ex.13] | – | good (A good herbicidal activity is given at values of at least 70) | – | – | – | herbicidal activity against SETVI ([1]; application rate 2000 g/ha): good (A good herbicidal activity is given at values of at least 70) |
| Cc1nc(C2CC2)ncc1-c1cc(Br)sc1Br [Ex.15] | – | – | – | – | – | herbicidal activity against ECHCG ([6]; application rate 500 g/ha): good (A good herbicidal activity is given at values of at least 70) |
| Cc1ccc(-c2nc(C3CC3)ncc2-c2ncccc2Br)o1 [Ex.17] | very good (a very good herbicidal activity is given at values of at least 85) | – | – | very good (a very good herbicidal activity is given at values of at least 85) | very good (a very good herbicidal activity is given at values of at least 85) | – |
| Cc1ccoc1-c1nc(C2CC2)ncc1-c1ncccc1Br [Ex.18] | – | good (A good herbicidal activity is given at values of at least 70) | – | very good (a very good herbicidal activity is given at values of at least 85) | – | – |
| CCOC(=O)Cc1nc(C2CC2)ncc1-c1ncccc1Cl [Ex.20] | – | very good (a very good herbicidal activity is given at values of at least 85) | very good (a very good herbicidal activity is given at values of at least 85) | very good (a very good herbicidal activity is given at values of at least 85) | very good (a very good herbicidal activity is given at values of at least 85) | – |
| OC(Cc1nc(C2CC2)ncc1-c1ncccc1Cl)c1ccco1 (centres unmarked) [Ex.24] | very good (a very good herbicidal activity is given at values of at least 85) | – | very good (a very good herbicidal activity is given at values of at least 85) | good (A good herbicidal activity is given at values of at least 70) | very good (a very good herbicidal activity is given at values of at least 85) | herbicidal activity against SETVI ([1]; application rate 2000 g/ha): good (A good herbicidal activity is given at values of at least 70) |
| Clc1cccnc1-c1cnc(C2CC2)nc1/C=C/c1ccco1 [Ex.25] | very good (a very good herbicidal activity is given at values of at least 85) | very good (a very good herbicidal activity is given at values of at least 85) | very good (a very good herbicidal activity is given at values of at least 85) | – | very good (a very good herbicidal activity is given at values of at least 85) | herbicidal activity against SETVI ([1]; application rate 2000 g/ha): very good (a very good herbicidal activity is given at values of at least 85) |
| OC1(Cc2nc(C3CC3)ncc2-c2ncccc2Cl)CCCC1 [Ex.26] | – | – | – | – | – | herbicidal activity against SETVI ([1]; application rate 2000 g/ha): very good (a very good herbicidal activity is given at values of at least 85) |
| Clc1cccnc1-c1cnc(C2CC2)nc1-c1ccoc1 [Ex.27] | very good (a very good herbicidal activity is given at values of at least 85) | very good (a very good herbicidal activity is given at values of at least 85) | very good (a very good herbicidal activity is given at values of at least 85) | very good (a very good herbicidal activity is given at values of at least 85) | very good (a very good herbicidal activity is given at values of at least 85) | – |
| Clc1cccnc1-c1cnc(C2CC2)nc1C=C1CCCC1 [Ex.28] | very good (a very good herbicidal activity is given at values of at least 85) | very good (a very good herbicidal activity is given at values of at least 85) | very good (a very good herbicidal activity is given at values of at least 85) | good (A good herbicidal activity is given at values of at least 70) | very good (a very good herbicidal activity is given at values of at least 85) | – |
| C/C=C/c1nc(C2CC2)ncc1-c1ncccc1Cl [Ex.30] | very good (a very good herbicidal activity is given at values of at least 85) | good (A good herbicidal activity is given at values of at least 70) | very good (a very good herbicidal activity is given at values of at least 85) | – | very good (a very good herbicidal activity is given at values of at least 85) | – |
| OC(Cc1nc(C2CC2)ncc1-c1ncccc1Cl)c1ccccc1 (centres unmarked) [Ex.36] | – | very good (a very good herbicidal activity is given at values of at least 85) | very good (a very good herbicidal activity is given at values of at least 85) | – | – | herbicidal activity against SETVI ([1]; application rate 2000 g/ha): very good (a very good herbicidal activity is given at values of at least 85) |
| OC(Cc1nc(C2CC2)ncc1-c1ncccc1Cl)c1ccoc1 (centres unmarked) [Ex.38] | – | very good (a very good herbicidal activity is given at values of at least 85) | – | – | very good (a very good herbicidal activity is given at values of at least 85) | – |
| Clc1cccnc1-c1cnc(C2CC2)nc1C=Cc1ccoc1 [Ex.39] | very good (a very good herbicidal activity is given at values of at least 85) | very good (a very good herbicidal activity is given at values of at least 85) | good (A good herbicidal activity is given at values of at least 70) | – | very good (a very good herbicidal activity is given at values of at least 85) | – |
| Clc1cccnc1-c1cnc(C2CC2)nc1C=C1CCCCC1 [Ex.42] | – | good (A good herbicidal activity is given at values of at least 70) | – | – | – | – |
| CCC=Cc1nc(C2CC2)ncc1-c1ncccc1Cl [Ex.45] | good (A good herbicidal activity is given at values of at least 70) | – | good (A good herbicidal activity is given at values of at least 70) | – | very good (a very good herbicidal activity is given at values of at least 85) | – |
| Cc1nc(C)c(-c2nc(C3CC3)ncc2-c2ncccc2Cl)o1 [Ex.46] | very good (a very good herbicidal activity is given at values of at least 85) | very good (a very good herbicidal activity is given at values of at least 85) | – | very good (a very good herbicidal activity is given at values of at least 85) | very good (a very good herbicidal activity is given at values of at least 85) | herbicidal activity against SETVI ([1]; application rate 2000 g/ha): very good (a very good herbicidal activity is given at values of at least 85) |
| OC(c1ccccc1)c1nc(C2CC2)ncc1-c1ccccn1 (centres unmarked) [Ex. 14] | – | – | – | – | – | herbicidal activity against SETVI ([1]; application rate 2000 g/ha): very good (a very good herbicidal activity is given at values of at least 85) |
